The text below walks through data of publication PMC6268357, “Synthesis and Biological Evaluation of New Ligustrazine Derivatives as Anti-Tumor Agents” (Molecules, 2012).

The subject of assay [1] is A2780 human cancer cell line. Kind of assay: MTT anti-proliferation assay, A2780. Type of assay: cell-based. To be noted: for IC50: Homo sapiens, read-out: IC50 A2780. The procedure: (§1) The cytotoxicities of these compounds were tested on five cancer cell lines by the standard MTT assay. […] The growing tumor cells at a density 10^4 cells/mL were exposed to various concentrations of the tested drugs and incubated in a 96-well microtiter plate for 96 h (37 °C, 5% CO2). After MTT solution (20 μL, 5 mg/mL) was added to each well, the plate was incubated for a further 4 h. Then the media was removed. Formazan crystals were dissolved with DMSO (150 μL). After mixing well, the absorbance was quantified at 570 nm with a BIORAD 550 spectrophotometer. Wells containing no drugs were used as blanks. […] Tumor cell growth inhibitory rate was calculated in the following equation (1): [drawing 3] (1)

The test system of assay [2] is HCT-8 human cancer cell line. Kind of assay: MTT anti-proliferation assay, HCT-8. Conditions: for IC50: Homo sapiens, read-out: IC50 HCT-8. Type of assay: cell-based. As for the experimental part: as §1
Assay [3] relates to BGC-823 human cancer cell line. The assay is described as follows: MTT anti-proliferation assay, BGC-823. Type of assay: cell-based. Conditions: for IC50: Homo sapiens, read-out: IC50 BGC-823. As for the experimental part: as §1
The test system of assay [4] is A-549 human cancer cell line. Kind of assay: MTT anti-proliferation assay, A549. It is filed as cell-based. To be noted: for IC50: Homo sapiens, read-out: IC50 A549. As for the experimental part: as §1
The test system of assay [5] is Bel-7402 human cancer cell line. Kind of assay: MTT anti-proliferation assay, Bel-7402. It is filed as cell-based. To be noted: for IC50: Homo sapiens, read-out: IC50 Bel 7402. As for the experimental part: as §1
Assay [6] relates to chick chorioallantoic membrane (CAM). Kind of assay: Chick chorioallantoic membrane (CAM) angiogenesis assay. It is filed as in vivo, White Leghorn chicken. To be noted: for Number of microvessels on CAM, treatment (mean ± s): n = 6, implanted day 7, read day 11, microvessels 1 to 100 μm in diameter. The procedure: Fertilized White Leghorn chicken eggs, provided by the Chinese Academy of Agricultural Sciences, were placed in an incubator as soon as embryogenesis started and were kept under constant humidity of 65% at 37 °C. On day 7, a square window was opened on the shell and physiological saline (0.1 mL) was injected in to detach the shell membrane. Then gelatin sponges carrying the TMP stimulator derivatives at 10 μg/egg and 40 μg/egg were implanted, respectively. The control group was treated with physiological saline. The windows were sealed with medical adhesive tape and the incubation went on till the experiment day. The above steps were performed under sterile conditions. On the 11th day, the tapes were removed and the entire CAM was detached after tissue fixation with methanol/acetone (1:1, v/v). Then we used computer-assisted image tracking to obtain absolute values for the number of microvessels which were 1 to 100 μm in diameter. Data were analyzed using the t-test option of the of Statistics Analysis System, the values were expressed as mean ± s of 6 observations and P < 0.05 was considered significant.

[7] abbreviates: A2780, MTT, 96 h exposure, maximal tested concentration 10.0 ig/mL.
Where [8] appears, read: HCT-8, MTT, 96 h exposure, maximal tested concentration 10.0 ig/mL.
[9] abbreviates: BGC-823, MTT, 96 h exposure, maximal tested concentration 10.0 ig/mL.
Setting [10] is: A549, MTT, 96 h exposure, maximal tested concentration 10.0 ig/mL.
The mark [11] stands for this setting: Bel-7402, MTT, 96 h exposure, maximal tested concentration 10.0 ig/mL.
The mark [12] stands for this setting: MTT, 96 h exposure, maximal tested concentration 10.0 ig/mL.

Converted amounts (≈) assume the structure as drawn. Like-named read-outs stand apart in the source and are kept apart here. Some results are limits rather than exact numbers.

Consider `C=C(CCC(C(=O)OCc1nc(C)c(C)nc1C)C1[C@H](O)C[C@@]2(C)C3=CCC4C(C)(CCC(OC(C)=O)C4(C)C)C3=CCC12C)C(C)C` (stereo partly drawn) [Compound 9, 3β-Acetoxy-16α-hydroxy-lanosta-7,9(11),24(31)-trien-21-oic acid-3,5,6-trimethylpyrazin-2-methyl ester], for which the IC50 in assay [1] (setting [7]) is over 10 µg/mL; in assay [2] (setting [8]), over 10 µg/mL; in assay [3] (setting [9]), over 10 µg/mL; in assay [4] (setting [10]) it was 8.77 µg/mL (≈ 13.3 µM); in assay [5] (setting [11]), over 10 µg/mL. In addition, the entries for the “Number of microvessels on CAM, treatment (mean ± s)” value (“Number of microvessels on CAM” for short) in assay [6] (dose 10 μg/egg) and in assay [6] (dose 40 μg/egg) were 7.7 ± 2.16 and 5.7 ± 1.21, respectively.

With `Cc1nc(C)c(COC(=O)[C@@]2(C)CCC3(C)CC[C@]4(C)C(=CC(=O)C5C6(C)CCC(O)C(C)(C)C6CCC54C)C3C2)nc1C` (stereo partly drawn) [Compound 10, (3β,18α,20β)-3-Hydroxy-11-oxoolean-12-en-29-oicacid-3,5,6-trimethylpyrazin-2-methyl ester], the concentration for half-maximal inhibition (IC50) in assay [1] (setting [7]), in assay [2] (setting [8]), in assay [3] (setting [9]), in assay [4] (setting [10]) and in assay [5] (setting [11]) was over 10 µg/mL throughout. In addition, the “Number of microvessels on CAM” value is 9.5 ± 1.76 in assay [6] (dose 10 μg/egg) and 9.8 ± 2.14 in assay [6] (dose 40 μg/egg).

With `Cc1nc(C)c(COC(=O)CC[C@@H](C)C2CCC3C4C(C[C@H](O)C32C)C2(C)CC[C@@H](O)CC2C[C@H]4O)nc1C` (stereo partly drawn) [Compound 6, 3α,7α,12α-Trihydroxy-5β-cholanic acid-3,5,6-trimethylpyrazin-2-methyl ester], the half-maximal inhibitory concentration (IC50) in assay [1] (setting [7]), in assay [2] (setting [8]), in assay [3] (setting [9]), in assay [4] (setting [10]) and in assay [5] (setting [11]) was over 10 µg/mL throughout. Moreover, the “Number of microvessels on CAM” value in assay [6] (dose 10 μg/egg) was 6.2 ± 2.40; in assay [6] (dose 40 μg/egg), 5.7 ± 2.07.

Regarding `CC1(C)CC[C@]2(C(=O)O)CC[C@]3(C)C(=CC[C@@H]4[C@@]5(C)CC[C@H](O)C(C)(C)[C@@H]5CC[C@]43C)[C@@H]2C1` [OA, oleanolic acid], the IC50 in assay [1] (setting [7]), in assay [2] (setting [8]), in assay [3] (setting [9]), in assay [4] (setting [10]) and in assay [5] (setting [11]) was over 10 µg/mL in each case.

As for `COc1cc(/C=C/C(=O)CC(=O)/C=C/c2ccc(O)c(OC)c2)ccc1O` [CU, curcumin], the concentration for half-maximal inhibition (IC50) in assay [1] (setting [7]) worked out at 6.52 µg/mL (≈ 17.7 µM); in assay [2] (setting [8]), 6.28 µg/mL (≈ 17 µM); in assay [3] (setting [9]), 6.81 µg/mL (≈ 18.5 µM); in assay [4] (setting [10]), 6.52 µg/mL (≈ 17.7 µM); in assay [5] (setting [11]), 6.5 µg/mL (≈ 17.6 µM).

As for `Cc1nc(C)c(C)nc1C` [TMP, ligustrazine], the IC50 in assay [1] (setting [7]), in assay [2] (setting [8]), in assay [3] (setting [9]), in assay [4] (setting [10]) and in assay [5] (setting [11]) was over 10 µg/mL each time.

On to `C[C@H](CCC(=O)O)[C@H]1CC[C@H]2[C@@H]3CC[C@@H]4C[C@H](O)CC[C@]4(C)[C@H]3C[C@H](O)[C@]12C` [DA, deoxycholic acid], for which the IC50 in assay [1] (setting [7]), in assay [2] (setting [8]), in assay [3] (setting [9]), in assay [4] (setting [10]) and in assay [5] (setting [11]) was over 10 µg/mL in each case.

Take `C=C(CCC(C(=O)OCc1nc(C)c(C)nc1C)C1[C@H](O)C[C@@]2(C)C3=C(CCC12C)C1(C)CCC(OC(C)=O)C(C)(C)C1CC3)C(C)C` (stereo partly drawn) [Compound 8, 3β-Acetoxy-16α-hydroxy-lanosta-8,24(31)-diene-21-oic acid-3,5,6-trimethylpyrazin-2-methyl ester]: the IC50 in assay [1] (setting [7]), in assay [2] (setting [8]), in assay [3] (setting [9]), in assay [4] (setting [10]) and in assay [5] (setting [11]) was over 10 µg/mL each time. Also, the figures for the “Number of microvessels on CAM” value in assay [6] (dose 10 μg/egg) and in assay [6] (dose 40 μg/egg) were 9.7 ± 3.98 and 10.8 ± 5.12, respectively.

Consider “1,7-bis(4-(3,5,6-Trimethylpyrazin-2-yl)-3-methoxyphenyl)-1,6-heptadiene-3,5-dione [Compound 4]”, for which the “IC50 A2780” value in assay [1] (setting [12]) was determined as 5.540 µg/mL. In addition, the “IC50 HCT-8” value in assay [2] (setting [12]) worked out at 7.106 µg/mL. In addition, the “IC50 BGC-823” value in assay [3] (setting [12]) came to 5.472 µg/mL. Also, the “IC50 A549” value in assay [4] (setting [12]) turned out to be 5.890 µg/mL. For the same compound, the “IC50 Bel 7402” value in assay [5] (setting [12]) came to 6.391 µg/mL. Besides, the figures for the “Number of microvessels on CAM” value in assay [6] (dose 10 μg/egg) and in assay [6] (dose 40 μg/egg) were 3.8 ± 2.79 and 1.4 ± 1.22, respectively. Further, the “Anti-angiogenesis effect on CAM (in words)” value in assay [6] (doses of 10 μg/egg and 40 μg/egg) is “dramatically block the growth of new vessels”.

As for `Cc1nc(C)c(COC(=O)C23CCC(C)(C)CC2C2=CCC4C5(C)CCC(O)C(C)(C)C5CCC4(C)[C@]2(C)CC3)nc1C` (stereo partly drawn) [Compound 7, 3β-Hydroxyolea-12-en-28-oic acid-3,5,6-trimethylpyrazin-2-methyl ester], the IC50 was over 10 µg/mL in assay [1] (setting [7]); 9.27 µg/mL (≈ 15.7 µM) in assay [2] (setting [8]); over 10 µg/mL in assay [3] (setting [9]); over 10 µg/mL in assay [4] (setting [10]); 7.61 µg/mL (≈ 12.9 µM) in assay [5] (setting [11]). Also, the figures for the “Number of microvessels on CAM” value in assay [6] (dose 10 μg/egg) and in assay [6] (dose 40 μg/egg) were 12.0 ± 2.90 and 9.5 ± 4.55, respectively.

`Cc1nc(C)c(COC(=O)/C=C/c2ccccc2)nc1C` [Compound 11, 3-Phenyl-2-propenoic acid-3,5,6-trimethylpyrazin-2-methyl ester]: the IC50 was over 10 µg/mL in assay [1] (setting [7]); over 10 µg/mL in assay [2] (setting [8]); over 10 µg/mL in assay [3] (setting [9]); 7.83 µg/mL (≈ 27.7 µM) in assay [4] (setting [10]); 9.4 µg/mL (≈ 33.3 µM) in assay [5] (setting [11]). Also, the “Number of microvessels on CAM” value in assay [6] (dose 10 μg/egg) was found to be 10.3 ± 2.73; in assay [6] (dose 40 μg/egg), 7.0 ± 3.03.

Turning to `O=C(O)/C=C/c1ccccc1` [CIA, cinnamic acid], the half-maximal inhibitory concentration (IC50) in assay [1] (setting [7]), in assay [2] (setting [8]), in assay [3] (setting [9]), in assay [4] (setting [10]) and in assay [5] (setting [11]) was over 10 µg/mL throughout.

For `C[C@H](CCC(=O)O)[C@H]1CC[C@H]2[C@@H]3[C@H](O)C[C@@H]4C[C@H](O)CC[C@]4(C)[C@H]3C[C@H](O)[C@]12C` [CA, cholic acid], the concentration for half-maximal inhibition (IC50) in assay [1] (A2780, 96 h) is over 10 µg/mL; in assay [2] (HCT-8, 96 h), over 10 µg/mL; in assay [3] (BGC-823, 96 h), over 10 µg/mL; in assay [4] (A549, 96 h), over 10 µg/mL; in assay [5] (Bel-7402, 96 h), over 10 µg/mL.

As to `C=C(CC[C@@H](C(=O)O)[C@H]1[C@H](O)C[C@@]2(C)C3=C(CC[C@]12C)[C@@]1(C)CC[C@H](OC(C)=O)C(C)(C)[C@@H]1CC3)C(C)C` [PA, pachymic acid], the concentration for half-maximal inhibition (IC50) in assay [1] (setting [7]), in assay [2] (setting [8]), in assay [3] (setting [9]), in assay [4] (setting [10]) and in assay [5] (setting [11]) was over 10 µg/mL in each case.

Regarding `CC1(C)[C@@H](O)CC[C@]2(C)[C@H]3C(=O)C=C4[C@@H]5C[C@@](C)(C(=O)O)CC[C@]5(C)CC[C@@]4(C)[C@]3(C)CC[C@@H]12` [GA, glycyrrhetinic acid], the IC50 in assay [1] (setting [7]), in assay [2] (setting [8]), in assay [3] (setting [9]), in assay [4] (setting [10]) and in assay [5] (setting [11]) was over 10 µg/mL throughout.

For `C=C(CCC(C(=O)O)[C@H]1[C@H](O)C[C@@]2(C)C3=CC[C@H]4C(C)(C)[C@@H](OC(C)=O)CC[C@]4(C)C3=CC[C@]12C)C(C)C` (some centres unmarked) [DPA, dehydropachymic acid], the “IC50 A2780” value in assay [1] (setting [12]) is “— (IC50 > 10.0 ig/mL)”. In addition, in assay [2] (setting [12]), the “IC50 HCT-8” value is listed as “— (IC50 > 10.0 ig/mL)”. Also, the “IC50 BGC-823” value in assay [3] (setting [12]) is on record as “— (IC50 > 10.0 ig/mL)”. Moreover, the “IC50 A549” value in assay [4] (setting [12]) was “— (IC50 > 10.0 ig/mL)”. The “IC50 Bel 7402” value in assay [5] (setting [12]) is listed as “— ^a (IC50 > 10.0 ig/mL)”.
